This is an account of results in patent US20240374779A1, “ANTIMICROBIAL ARTICLES, METHODS OF MAKING AND USING SAME” (TERASAKI INSTITUTE FOR BIOMEDICAL INNOVATION, priority 2021, published 2024).

The conditions of data set [1]: rats; cited from earlier work.
Data set [2] in a line: hydrogen peroxide release kinetics from microspheres (dissolved oxygen in PBS with catalase). The conditions noted are these: early stages (0-3 days); levels decreased gradually. It is filed as physicochemical. As to the method: The hydrogen peroxide release kinetics of the CPO/PLGA MPS were determined indirectly by measuring the dissolved oxygen levels in phosphate buffered saline (PBS) after breaking down the hydrogen peroxide with catalase. Dissolved oxygen levels were measured by an oxygen sensor probe (ISO-OXY-2, World Precision Instruments), which was connected to the free radical analyzer (TBR1025, World Precision Instruments). MPS with different CPO loading and MPS with different dimensions were evaluated. […] Catalase was used to catalyze the decomposition of hydrogen peroxide to water and oxygen. […] After fully flushed, the hypoxic chamber with glass vials containing samples was sealed and placed into a cell culture incubator at 37° C.

Data set [3] concerns C. difficile spores. To be noted: similar concentrations (about 100 ppm) of vaporized hydrogen peroxide; cited from earlier work.

Each structure is given as a SMILES string. A value given as a limit tells only on which side of the number the result lay.

As for `NC(N)=O` [Urea], the LD50 entry in data set [1] is “about 15 g/kg”.
`[Ca+2].[O-][O-]` [free CPO, calcium peroxide]: the “peroxide levels with free CPO in PBS” value in data set [2] is reported as “Elevated peroxide levels”.
Turning to `OO` [vaporized hydrogen peroxide, hydrogen peroxide], the “time to eradicate C. difficile spores” value in data set [3] is reported as ≤ 20 min.
